Measurements from patent US5637582A, “Peripheral circulation improving agent” (priority 1992, dated 1997).

Experiments:
arterial blood pressure = test system: arterial blood pressure; set-up: species or system male SD rat; details: rat, in vivo
Procedure: (Lower limbs peripheral circulation disorder model due to hind leg cooling: Model of Raynaud's disease) […] TP-200T, trade name) through a catheter attached to the artery. […] After the operation, at the time that the state became stable, the left hind leg was exposed to a perfused solution at 10° C. to decrease the femoral arterial blood flow. […] In the case of Beraprost Na, continuous injection in an amount of […] was carried out after 30 minutes from cooling. […] The present model is disclosed, for example, in Nishio et al, "Effect of Beraprost Sodium on Peripheral Circulatory Disturbances Induced by Various Stimuli", Arzneim.-Forsch./Drug Res., 39 (II), Nr. 10 (1989), pp. 1229-1234. Note particularly the section "2.4. Sphygmometry in rat hind paw", at page 1230.

femoral artery = assay: Femoral arterial blood flow, hind leg cooling model of Raynaud's disease (Experimental Example 5); type: in vivo, male SD rat
Procedure: (Lower limbs peripheral circulation disorder model due to hind leg cooling: Model of Raynaud's disease)
A catheter was inserted into left common carotid artery of a male SD rat (one group consisting of 5 rats) under anesthesia, and the arterial blood pressure was measured with a standard pressure transducer (manufactured by Nihon Koden. TP-200T, trade name) through a catheter attached to the artery. After isolating the left femoral artery from the peripheral connective tissue, a flow probe (HDP 10-20R: F 1.0 mm) of a Doppler blood flow meter (manufactured by Crystal Biotec Co., PD20, trade name) was attached thereto and was connected to the Doppler blood flow meter to measure the artery blood flow. After the operation, at the time that the state became stable, the left hind leg was exposed to a perfused solution at 10° C. to decrease the femoral arterial blood flow. After 30 minutes, 1 ml/kg of a 0.9% NaCl solution or 300 μg/kg of the test compound A was intravenously administered and the state was observed. In the case of Beraprost Na, continuous injection in an amount of […] was carried out after 30 minutes from cooling. The compounds to be used were each dissolved in a 0.9% NaCl solution.
The present model is disclosed, for example, in Nishio et al, "Effect of Beraprost Sodium on Peripheral Circulatory Disturbances Induced by Various Stimuli", Arzneim.-Forsch./Drug Res., 39 (II), Nr. 10 (1989), pp. 1229-1234. Note particularly the section "2.4. Sphygmometry in rat hind paw", at page 1230.

Q: With `CC#CCC(C)[C@H](O)/C=C/[C@@H]1[C@H]2c3cccc(CCCC(=O)O)c3O[C@H]2C[C@H]1O` (some centres unmarked) [Compound J, Beraprost Na, reference compound] as the compound, how does the “Mean Arterial Pressure change” value (arterial blood pressure) read?
A: The value was 1.20 Δ mmHg.

Q: And the “Femoral Arterial Blood Flow change” value (femoral artery; 0 min (before cooling and administration; 30 min = 0))?
A: The value was 1.116 Δ ml/min.

Q: What about the “Femoral Arterial Blood Flow change” value (femoral artery; 40 min, given at 30 min: A 300 μg/kg i.v., J 0.3 μg/kg/ml continuous injection) of the same compound?
A: The value was 0.252 Δ ml/min.

Q: What about the “Femoral Arterial Blood Flow change” value (femoral artery; 50 min, given at 30 min: A 300 μg/kg i.v., J 0.3 μg/kg/ml continuous injection) of the same compound?
A: Its value is 0.304 Δ ml/min.

Q: What about the “Femoral Arterial Blood Flow change” value (femoral artery; 60 min, given at 30 min: A 300 μg/kg i.v., J 0.3 μg/kg/ml continuous injection) of the same compound?
A: Its value is 0.368 Δ ml/min.

Q: And the “Femoral Arterial Blood Flow change” value (femoral artery; 70 min, given at 30 min: A 300 μg/kg i.v., J 0.3 μg/kg/ml continuous injection)?
A: The value was 0.436 Δ ml/min.

Q: And the “Femoral Arterial Blood Flow change” value (femoral artery; 80 min, given at 30 min: A 300 μg/kg i.v., J 0.3 μg/kg/ml continuous injection)?
A: Its value is 0.372 Δ ml/min.

Q: What about the “Femoral Arterial Blood Flow change” value (femoral artery; 90 min, given at 30 min: A 300 μg/kg i.v., J 0.3 μg/kg/ml continuous injection) of the same compound?
A: The value was 0.344 Δ ml/min.
